# Source: US20240101570A1 (AMGEN INC., priority 2020, published 2024)
# pIC50: −log10 of the molar value.
# Key:
# HCT116 MTAP null cells = assay: HCT116 MTAP null cell proliferation / viability (CellTiter-Glo, 6 days); format: cell-based; conditions: HCT116-MTAP null, 144 h, HCT116 MTAP null cells, 6 days, CellTiter-Glo; read-out: HCT-116 MTAP null IC50
# How it was run: (§1)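 CellTiter-Glo luminescence, 6-day exposure, RPMI 1640 + 10% FBS. Dosing: 1:3 series (8-9 pts, top 1 or 10 μM) or 1:2 series (22 pts, top 10 or 50 μM), DMSO control. IC50 = 50% of control via curve fit.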
# HCT116 WT cells = assay: HCT116 WT cell proliferation / viability (CellTiter-Glo, 6 days); format: cell-based; conditions: Homo sapiens, HCT-116, 144 h, HCT116 WT cells, 6 days, CellTiter-Glo; read-out: HCT-116 WT IC50
# How it was run: as §1
Structure (SMILES),pIC50 (HCT116 MTAP null cells),pIC50 (HCT116 WT cells)
"Nc1nc2ccc(C(=O)N(Cc3ccc(C(F)(F)F)nn3)C3CC(F)(F)C3)cc2c2c1COC2 [Example 660, 4-amino-N-(3,3-difluorocyclobutyl)-N-((6-(trifluoromethyl)-3-pyridazinyl)methyl)-1,3-dihydrofuro[3,4-c]quinoline-8-carboxamide]",6.45,< 5.00
"Nc1nc2ccc(C(=O)N(Cc3ccc(C(F)(F)F)nn3)C3CC3)cc2c2c1COC2 [Example 661, 4-amino-N-cyclopropyl-N-((6-(trifluoromethyl)-3-pyridazinyl)methyl)-1,3-dihydrofuro[3,4-c]quinoline-8-carboxamide]",6.52,4.58
"Nc1nc2cnc(C(=O)N(Cc3ccc(C(F)(F)F)nn3)C3CC(F)(F)C3)cc2c2c1COC2 [Example 668, 4-amino-N-(3,3-difluorocyclobutyl)-N-((6-(trifluoromethyl)-3-pyridazinyl)methyl)-1,3-dihydrofuro[3,4-c][1,7]naphthyridine-8-carboxamide]",6.52,< 5.00
"Nc1nc2ccc(C(=O)N(Cc3ccc(C(F)(F)F)nn3)C3CCC3)cc2c2c1COC2 [Example 669, 4-amino-N-cyclobutyl-N-((6-(trifluoromethyl)-3-pyridazinyl)methyl)-1,3-dihydrofuro[3,4-c]quinoline-8-carboxamide]",7.14,5.51
"CC(C)CN(Cc1ccc(C(F)(F)F)nn1)C(=O)c1cc2c3c(c(N)nc2cn1)COC3 [Example 670, 4-amino-N-(2-methylpropyl)-N-((6-(trifluoromethyl)-3-pyridazinyl)methyl)-1,3-dihydrofuro[3,4-c][1,7]naphthyridine-8-carboxamide]",6.77,5.10
"Nc1nc2cnc(C(=O)N(Cc3ccc(Br)nn3)CC3CC3)cc2c2c1COC2 [Example 671, 4-amino-N-((6-bromo-3-pyridazinyl)methyl)-N-(cyclopropylmethyl)-1,3-dihydrofuro[3,4-c][1,7]naphthyridine-8-carboxamide]",7.10,5.40
"CCOc1ccc(CN(CC(C)C)C(=O)c2cc3c4c(c(N)nc3cn2)COC4)nn1 [Example 672, 4-amino-N-((6-ethoxy-3-pyridazinyl)methyl)-N-(2-methylpropyl)-1,3-dihydrofuro[3,4-c][1,7]naphthyridine-8-carboxamide]",6.84,5.13
"Nc1nc2ccc(C(=O)N(Cc3ccc(Br)nn3)CC3CC3)cc2c2c1COC2 [Example 674, 4-amino-N-((6-bromo-3-pyridazinyl)methyl)-N-(cyclopropylmethyl)-1,3-dihydrofuro[3,4-c]quinoline-8-carboxamide]",7.14,5.59
"COC[C@@H](C)N(Cc1ccc(Br)nn1)C(=O)c1cnc2nc(N)c3c(c2c1)COC3 [Example 681, 4-amino-N-((6-bromo-3-pyridazinyl)methyl)-N-((2R)-1-methoxy-2-propanyl)-1,3-dihydrofuro[3,4-c][1,8]naphthyridine-8-carboxamide]",6.44,5.19
"N#Cc1ccc(CN(CC2CC2)C(=O)c2cc3c4c(c(N)nc3cn2)COC4)nc1 [Example 682, 4-amino-N-((5-cyano-2-pyridinyl)methyl)-N-(cyclopropylmethyl)-1,3-dihydrofuro[3,4-c][1,7]naphthyridine-8-carboxamide]",7.06,5.47
"COc1nc(CN(C(=O)c2cc3c4c(c(N)nc3cn2)COC4)C(C)C)ccc1Cl [Example 685, 4-amino-N-((5-chloro-6-methoxy-2-pyridinyl)methyl)-N-(2-propanyl)-1,3-dihydrofuro[3,4-c][1,7]naphthyridine-8-carboxamide]",6.70,< 5.00
"C[C@H](c1ncccn1)N(Cc1cc2c(cn1)OCCC2)C(=O)c1cc2c3c(c(N)nc2cn1)COC3 [Example 686, 4-amino-N-(3,4-dihydro-2H-pyrano[2,3-c]pyridin-6-ylmethyl)-N-((1R)-1-(2-pyrimidinyl)ethyl)-1,3-dihydrofuro[3,4-c][1,7]naphthyridine-8-carboxamide]",6.35,5.06
"Nc1nc2cnc(C(=O)N(Cc3ccc(C(F)(F)F)nn3)CC3CC3)cc2c2c1COC2 [Example 688, 4-amino-N-(cyclopropylmethyl)-N-((6-(trifluoromethyl)-3-pyridazinyl)methyl)-1,3-dihydrofuro[3,4-c][1,7]naphthyridine-8-carboxamide]",7.09,5.46

# Continued, values first:
pIC50 (HCT116 MTAP null cells),pIC50 (HCT116 WT cells),Structure (SMILES)
7.54,6.54,"C[C@H](c1ncn(C)n1)N(Cc1ccc(C(F)F)cn1)C(=O)c1ccc2nc(N)c3c(c2c1)COC3 [Example 662, 4-amino-N-((5-(difluoromethyl)-2-pyridinyl)methyl)-N-((1R)-1-(1-methyl-1H-1,2,4-triazol-3-yl)ethyl)-1,3-dihydrofuro[3,4-c]quinoline-8-carboxamide]"
7.46,5.99,"Nc1nc2ccc(C(=O)N(Cc3ccc(OC(F)(F)F)cn3)CC3CC3)cc2c2c1COC2 [Example 663, 4-amino-N-(cyclopropylmethyl)-N-((5-(trifluoromethoxy)-2-pyridinyl)methyl)-1,3-dihydrofuro[3,4-c]quinoline-8-carboxamide]"
7.42,5.86,"CC(C)CN(Cc1ccc(C(F)(F)F)nn1)C(=O)c1ccc2nc(N)c3c(c2c1)COC3 [Example 664, 4-amino-N-(2-methylpropyl)-N-((6-(trifluoromethyl)-3-pyridazinyl)methyl)-1,3-dihydrofuro[3,4-c]quinoline-8-carboxamide]"
7.43,5.90,"CC(C)CN(Cc1ccc(Br)nn1)C(=O)c1ccc2nc(N)c3c(c2c1)COC3 [Example 665, 4-amino-N-((6-bromo-3-pyridazinyl)methyl)-N-(2-methylpropyl)-1,3-dihydrofuro[3,4-c]quinoline-8-carboxamide]"
6.16,< 5.00,"C[C@@H](c1ncccn1)N(Cc1ccc(C#N)cn1)C(=O)c1ccc2nc(N)c3c(c2c1)COC3 [Example 666, 4-amino-N-((5-cyano-2-pyridinyl)methyl)-N-((1S)-1-(2-pyrimidinyl)ethyl)-1,3-dihydrofuro[3,4-c]quinoline-8-carboxamide]"
6.03,5.15,"C[C@H](c1ncn(C)n1)N(Cc1ccc(C(F)F)cn1)C(=O)c1cc2c3c(c(N)nc2cn1)COC3 [Example 667, 4-amino-N-((5-(difluoromethyl)-2-pyridinyl)methyl)-N-((1R)-1-(1-methyl-1H-1,2,4-triazol-3-yl)ethyl)-1,3-dihydrofuro[3,4-c][1,7]naphthyridine-8-carboxamide]"
6.96,5.49,"C[C@H](c1ncccn1)N(Cc1ccc(Br)nn1)C(=O)c1cc2c3c(c(N)nc2cn1)COC3 [Example 673, 4-amino-N-((6-bromo-3-pyridazinyl)methyl)-N-((1R)-1-(2-pyrimidinyl)ethyl)-1,3-dihydrofuro[3,4-c][1,7]naphthyridine-8-carboxamide]"
7.18,4.90,"CC(C)N(Cc1ccc(C(F)(F)F)cn1)C(=O)c1cc2c3c(c(N)nc2cn1)COC3 [Example 675, 4-amino-N-(2-propanyl)-N-((5-(trifluoromethyl)-2-pyridinyl)methyl)-1,3-dihydrofuro[3,4-c][1,7]naphthyridine-8-carboxamide]"
7.92,6.50,"C[C@H](c1ncccn1)N(Cc1ccc(Cl)nn1)C(=O)c1ccc2nc(N)c3c(c2c1)COC3 [Example 676, 4-amino-N-((6-chloro-3-pyridazinyl)methyl)-N-((1R)-1-(2-pyrimidinyl)ethyl)-1,3-dihydrofuro[3,4-c]quinoline-8-carboxamide]"
6.61,< 5.00,"Cc1nc(CN(C)C(=O)c2ccc3nc(N)c4c(c3c2)COC4)ccc1Br [Example 677, 4-amino-N-((5-bromo-6-methyl-2-pyridinyl)methyl)-N-methyl-1,3-dihydrofuro[3,4-c]quinoline-8-carboxamide]"
7.40,5.93,"CC(C)N(Cc1ccc(OC(F)(F)F)cn1)C(=O)c1ccc2nc(N)c3c(c2c1)COC3 [Example 678, 4-amino-N-(2-propanyl)-N-((5-(trifluoromethoxy)-2-pyridinyl)methyl)-1,3-dihydrofuro[3,4-c]quinoline-8-carboxamide]"
8.30,6.97,"C[C@H](c1ncccn1)N(Cc1ccc(C#N)c(Cl)n1)C(=O)c1ccc2nc(N)c3c(c2c1)COC3 [Example 679, 4-amino-N-((6-chloro-5-cyano-2-pyridinyl)methyl)-N-((1R)-1-(2-pyrimidinyl)ethyl)-1,3-dihydrofuro[3,4-c]quinoline-8-carboxamide]"
7.04,5.55,"COC[C@@H](C)N(Cc1ccc(Br)nn1)C(=O)c1cc2c3c(c(N)nc2cn1)COC3 [Example 680, 4-amino-N-((6-bromo-3-pyridazinyl)methyl)-N-((2R)-1-methoxy-2-propanyl)-1,3-dihydrofuro[3,4-c][1,7]naphthyridine-8-carboxamide]"
6.63,< 5.00,"COc1ccc(CN(C(=O)c2cc3c4c(c(N)nc3cn2)COC4)C(C)C)nc1Cl [Example 683, 4-amino-N-((6-chloro-5-methoxy-2-pyridinyl)methyl)-N-(2-propanyl)-1,3-dihydrofuro[3,4-c][1,7]naphthyridine-8-carboxamide]"
6.47,< 5.00,"CC(C)N(Cc1ccc(Br)nn1)C(=O)c1cc2c3c(c(N)nc2cn1)COC3 [Example 684, 4-amino-N-((6-bromo-3-pyridazinyl)methyl)-N-(2-propanyl)-1,3-dihydrofuro[3,4-c][1,7]naphthyridine-8-carboxamide]"
